Measurements published in PubChem BioAssay AID200 (DTP/NCI, 2004).
Several values for one entry are separate records, joined by “and”; a condition that tells them apart may be missing. Equal values may be shown once. Toxic doses and inconclusive results are not listed.

Tested on: B6C3F1 mice, B16 melanoma ip, median survival T/C
Assay: NCI In Vivo Anticancer Drug Screen. Data for tumor model B16 Melanoma (intraperitoneal) in B6C3F1 mice
Conditions: endpoint: median survival time, higher = longer survival
Experimental: The antitumor activity of compounds was measured in mice bearing transplantable tumors. Survival or tumor size were measured and the results are expressed as the measurement made in the treated group (T) divided by the measurement made in the vehicle treated control group (C). The tumor model used in this assay is B16 Melanoma (intraperitoneal) in B6C3F1 mice

[1] = dose: 100.0 mg/kg/injection, schedule: Q01DX009 (ip), vehicle: Klucel (hydroxypropylcellulose) (HPC)
[2] = dose: 12.5 mg/kg/injection, schedule: Q01DX009 (ip), vehicle: saline with Tween-80
[3] = dose: 25.0 mg/kg/injection, schedule: Q01DX009 (ip), vehicle: saline with Tween-80
[4] = dose: 6.25 mg/kg/injection, schedule: Q01DX009 (ip), vehicle: saline with Tween-80
[5] = dose: 25.0 mg/kg/injection, schedule: Q01DX009 (ip), vehicle: distilled water + Tween-80
[6] = dose: 50.0 mg/kg/injection, schedule: Q01DX009 (ip), vehicle: distilled water + Tween-80
[7] = dose: 100.0 mg/kg/injection, schedule: Q01DX009 (ip), vehicle: distilled water + Tween-80
[8] = dose: 200.0 mg/kg/injection, schedule: Q01DX009 (ip), vehicle: distilled water + Tween-80

Structure (SMILES): CC(NC(=O)C(Cc1cnc[nH]1)NC(=O)OCc1ccccc1)C(=O)O (configuration not stated)
- T/C [1]: 98 % of control
- T/C (dose: 200.0 mg/kg/injection, schedule: Q01DX009 (ip), vehicle: Klucel (hydroxypropylcellulose) (HPC)): 104 % of control
- T/C (dose: 400.0 mg/kg/injection, schedule: Q01DX009 (ip), vehicle: Klucel (hydroxypropylcellulose) (HPC)): 98 % of control

Structure (SMILES): O=[N+]([O-])c1ccc(Sc2ccncn2)c([N+](=O)[O-])c1
- T/C [2]: 92 % of control
- T/C [3]: 105 % of control
- T/C (dose: 50.0 mg/kg/injection, schedule: Q01DX009 (ip), vehicle: saline with Tween-80): 92 % of control
- T/C (dose: 100.0 mg/kg/injection, schedule: Q01DX009 (ip), vehicle: saline with Tween-80): 101 % of control

Structure (SMILES): COC1C(CO)OC(n2cnc3c(=S)nc(N)[nH]c32)C1O (configuration not stated)
- T/C (dose: 50.0 mg/kg/injection, schedule: Q01DX009 (ip), vehicle: Klucel (hydroxypropylcellulose) (HPC)): 116 % of control
- T/C [1]: 114 % of control

Structure (SMILES): O=NN(CCF)C(=O)N[C@H]1CCCC[C@H]1O
- T/C (dose: 7.5 mg/kg/injection, schedule: Q01DX001 (ip), vehicle: saline): 109 % of control
- T/C (dose: 30.0 mg/kg/injection, schedule: Q01DX001 (ip), vehicle: saline): 177 % of control
- T/C (dose: 60.0 mg/kg/injection, schedule: Q01DX001 (ip), vehicle: saline): 209 % of control

Structure (SMILES): NC(CC(=O)CCl)C(=O)O (configuration not stated)
- T/C (dose: 6.25 mg/kg/injection, schedule: Q01DX009 (ip), vehicle: Klucel (hydroxypropylcellulose) (HPC)): 106 % of control
- T/C (dose: 12.5 mg/kg/injection, schedule: Q01DX009 (ip), vehicle: Klucel (hydroxypropylcellulose) (HPC)): 101 % of control

Structure (SMILES): COc1cc(/C=C/[N+](=O)[O-])cc(Br)c1OC
- T/C (dose: 0.75 mg/kg/injection, schedule: Q01DX009 (ip), vehicle: saline with Tween-80): 102 % of control
- T/C (dose: 1.5 mg/kg/injection, schedule: Q01DX009 (ip), vehicle: saline with Tween-80): 112 % of control
- T/C (dose: 3.0 mg/kg/injection, schedule: Q01DX009 (ip), vehicle: saline with Tween-80): 98 % of control
- T/C (dose: 6.0 mg/kg/injection, schedule: Q01DX009 (ip), vehicle: saline with Tween-80): 97 % of control
- T/C [4]: 91 % of control
- T/C (dose: 12.0 mg/kg/injection, schedule: Q01DX009 (ip), vehicle: saline with Tween-80): 93 % of control

Structure (SMILES): CC[C@@]1(O)C[C@H](OC2CC(N(C)C)C(OC3CC(O)C(OC4CCC(=O)C(C)O4)C(C)O3)C(C)O2)c2c(cc3c(c2O)C(=O)c2c(O)ccc(O)c2C3=O)[C@H]1C(=O)OC (some centres not stated)
- T/C (dose: 0.25 mg/kg/injection, schedule: Q01DX009 (ip), vehicle: water): 100 % of control
- T/C (dose: 0.5 mg/kg/injection, schedule: Q01DX009 (ip), vehicle: water): 120 % of control
- T/C (dose: 1.0 mg/kg/injection, schedule: Q01DX009 (ip), vehicle: water): 156 % of control

Structure (SMILES): Nc1nc([Se]c2nc(N)nc3c2ncn3C2OC(CO)C(O)C2O)c2ncn(C3OC(CO)C(O)C3O)c2n1 (configuration not stated)
- T/C [5]: 108 % of control
- T/C [6]: 112 % of control
- T/C [7]: 89 % of control
- T/C [8]: 87 % of control

Structure (SMILES): CCc1nc(N)nc(N)c1-c1ccc(Cl)c(N=[N+]=[N-])c1
- T/C (dose: 12.5 mg/kg/injection, schedule: Q01DX009 (ip), vehicle: distilled water + Tween-80): 100 % of control
- T/C [5]: 98 % of control and 102 % of control
- T/C [6]: 108 % of control (2×) and 109 % of control
- T/C [7]: 122 % of control
- T/C [8]: 157 % of control and 169 % of control

Structure (SMILES): [Cl][Pt+2][Cl].[NH-]c1ccccc1[NH-]
- T/C (dose: 0.63 mg/kg/injection, schedule: Q01DX009 (ip), vehicle: saline with Tween-80): 99 % of control
- T/C (dose: 1.25 mg/kg/injection, schedule: Q01DX009 (ip), vehicle: saline with Tween-80): 111 % of control
- T/C (dose: 5.0 mg/kg/injection, schedule: Q01DX009 (ip), vehicle: saline with Tween-80): 150 % of control

Structure (SMILES): NCCCN=c1ccc2c3c1c(O)c1c(O)ccc(=O)c1c3[nH]n2CCNCCO
- T/C (dose: 2.0 mg/kg/injection, schedule: Q01DX009 (ip), vehicle: water): 188 % of control
- T/C (dose: 4.0 mg/kg/injection, schedule: Q01DX009 (ip), vehicle: water): 263 % of control
- T/C (dose: 8.0 mg/kg/injection, schedule: Q01DX009 (ip), vehicle: water): 165 % of control

Structure (SMILES): F[B-](F)(F)F
- T/C (dose: 12.5 mg/kg/injection, schedule: Q01DX009 (ip), vehicle: gum acacia): 99 % of control
- T/C (dose: 25.0 mg/kg/injection, schedule: Q01DX009 (ip), vehicle: gum acacia): 118 % of control
- T/C (dose: 50.0 mg/kg/injection, schedule: Q01DX009 (ip), vehicle: gum acacia): 100 % of control and 106 % of control
- T/C (dose: 100.0 mg/kg/injection, schedule: Q01DX009 (ip), vehicle: gum acacia): 98 % of control and 106 % of control
- T/C (dose: 200.0 mg/kg/injection, schedule: Q01DX009 (ip), vehicle: gum acacia): 108 % of control and 112 % of control
- T/C (dose: 400.0 mg/kg/injection, schedule: Q01DX009 (ip), vehicle: gum acacia): 93 % of control and 99 % of control

Structure (SMILES): COc1cc(NC(N)=O)ccc1Nc1c2ccc(N)cc2nc2cc(N)ccc12
- T/C (dose: 0.5 mg/kg/injection, schedule: Q01DX009 (ip), vehicle: saline): 93 % of control
- T/C (dose: 1.0 mg/kg/injection, schedule: Q01DX009 (ip), vehicle: saline): 111 % of control
- T/C (dose: 2.0 mg/kg/injection, schedule: Q01DX009 (ip), vehicle: saline): 101 % of control
- T/C (dose: 4.0 mg/kg/injection, schedule: Q01DX009 (ip), vehicle: saline): 86 % of control
- T/C (dose: 8.0 mg/kg/injection, schedule: Q01DX009 (ip), vehicle: saline): 93 % of control
- T/C (dose: 16.0 mg/kg/injection, schedule: Q01DX009 (ip), vehicle: saline): 98 % of control

Structure (SMILES): Cc1ncc([N+](=O)[O-])n1CCO
- T/C (dose: 37.5 mg/kg/injection, schedule: Q01DX009 (ip), vehicle: Klucel (hydroxypropylcellulose) (HPC)): 103 % of control
- T/C (dose: 75.0 mg/kg/injection, schedule: Q01DX009 (ip), vehicle: Klucel (hydroxypropylcellulose) (HPC)): 100 % of control
- T/C (dose: 150.0 mg/kg/injection, schedule: Q01DX009 (ip), vehicle: Klucel (hydroxypropylcellulose) (HPC)): 101 % of control
- T/C (dose: 300.0 mg/kg/injection, schedule: Q01DX009 (ip), vehicle: Klucel (hydroxypropylcellulose) (HPC)): 92 % of control
- T/C (dose: 600.0 mg/kg/injection, schedule: Q01DX009 (ip), vehicle: Klucel (hydroxypropylcellulose) (HPC)): 100 % of control

Structure (SMILES): C/C(=N\NC(=S)N1CC2CCC(CC2)C1)c1nccs1
- T/C [4]: 100 % of control
- T/C [2]: 107 % of control
- T/C [3]: 105 % of control

Structure (SMILES): CC1=CC2C(O)(CC(CO)=CC3C4C(C)(C)C4(OC(=O)c4ccccc4)C(OC(=O)c4ccccc4)C(C)C32O)C1=O (configuration not stated)
- T/C (dose: 0.13 mg/kg/injection, schedule: Q01DX009 (ip), vehicle: saline with Tween-80): 98 % of control
- T/C (dose: 0.25 mg/kg/injection, schedule: Q01DX009 (ip), vehicle: saline with Tween-80): 90 % of control
- T/C (dose: 0.5 mg/kg/injection, schedule: Q01DX009 (ip), vehicle: saline with Tween-80): 93 % of control
- T/C (dose: 1.0 mg/kg/injection, schedule: Q01DX009 (ip), vehicle: saline with Tween-80): 95 % of control
- T/C (dose: 2.0 mg/kg/injection, schedule: Q01DX009 (ip), vehicle: saline with Tween-80): 90 % of control

Structure (SMILES): CC(Br)C(=O)c1ccc2cc(Br)c3ccccc3c2c1 (configuration not stated)
- T/C (dose: 3.12 mg/kg/injection, schedule: Q01DX009 (ip), vehicle: saline with Tween-80): 98 % of control
- T/C [4]: 100 % of control
- T/C [2]: 90 % of control

Structure (SMILES): CCC(C)C(=O)OC1C(=O)OC2CC3C(C)=CC(=O)C(O)C3(C)C3C4(O)OCC23C1C(C)C4O (configuration not stated)
- T/C (dose: 2.5 mg/kg/injection, schedule: Q01DX009 (ip), vehicle: saline): 160 % of control
- T/C (dose: 5.0 mg/kg/injection, schedule: Q01DX009 (ip), vehicle: saline): 176 % of control

Structure (SMILES): O=C1CCC2=C3C4CCCC5OC6CC(=O)CCC6=C(C6CCCC(OC2C1)C36)C54 (configuration not stated)
- T/C (dose: 50.0 mg/kg/injection, schedule: Q01DX009 (ip), vehicle: saline): 102 % of control
- T/C (dose: 100.0 mg/kg/injection, schedule: Q01DX009 (ip), vehicle: saline): 102 % of control
- T/C (dose: 200.0 mg/kg/injection, schedule: Q01DX009 (ip), vehicle: saline): 97 % of control
- T/C (dose: 400.0 mg/kg/injection, schedule: Q01DX009 (ip), vehicle: saline): 96 % of control
